This passage reports MIC50 and MIC80 results from patent US5464848A, “1,2,4-oxadiazolyl-phenoxyalkylisoxazoles and their use as antiviral agents” (Sterling Winthrop Inc., priority 1993, dated 1995).

The test system of experiment [1] is human rhinovirus serotypes, panel B. Kind of experiment: MIC50/MIC80 over panel B of 10 human rhinovirus serotypes (HeLa cell CPE). Type of experiment: cell-based. To be noted: for MIC80: minimum concentration required to inhibit 80% of the tested serotypes. As for the experimental part: (§1) They are useful in inhibiting virus replication in vitro and are primarily active against picornaviruses, including enteroviruses, echovirus and coxsackie virus, especially rhinoviruses. […] The test procedure used was as follows: The MIC values were determined by an automated tissue culture infectious dose 50% (TCID-50) assay. HeLa cells in monoloyers in 96-well cluster plates were infected with a dilution of virus which had been shown empirically to produce 80% to 100% cytopathic effect (CPE) in 3 days in the absence of drug. The compound to be tested was serially diluted through 10, 2-fold cycles and added to the infected cells. After a 3 day incubation at 33° C. and 2.5% carbon dioxide, the cells were fixed with a 5% solution of glutaraldehyde followed by staining with a 0.25% solution of crystal violet in water. The plates were then rinsed, dried, and the amount of stain remaining in the well (a measure of intact cells) was quantitated with an optical density reader. The MIC was determined to be the concentration of compound which protected 50% of the cells from virus-induced CPE relative to an untreated virus control.
(§2) In the above test procedures, representative compounds of formula I were tested against some the serotypes from either a panel of fifteen human rhinovirus (HRV) serotypes, (noted in the table as panel T) namely, HRV-2, -14, -1A, -1B, -6, -21, -22, -15, -25, -30, -50, -67, -89, -86 and -41 or against some of the serotypes from a panel of 10 human rhinovirus serotypes namely HRV-3, -4, -5, -9, -16, -18, -38, -66, -75 and -61, (noted in the table as panel B) and the MIC value, expressed in micrograms per milliliter ([…]), for each rhinovirus serotype was determined for each virus, example 1e is given as an example of the data. Then MIC50 and MIC80 values, which are the minimum concentrations of the compound required to inhibit 50% and 80%, respectively, of the tested serotypes were determined.
(§3) The following Table gives the test results for representative compounds of the invention. The panel of viruses used in the test appears before the MIC80 and MIC50 figure and the number of serotypes which the compound is tested against (N) is indicated after the MIC80 and MIC50 figure.

Experiment [2] relates to human rhinovirus (HRV) serotypes, panel T. Kind of experiment: MIC50/MIC80 over panel T of fifteen human rhinovirus serotypes (HeLa cell CPE). Type of experiment: cell-based. To be noted: for MIC50: Human rhinovirus sp., 72 h, minimum concentration required to inhibit 50% of the tested serotypes; for MIC80: minimum concentration required to inhibit 80% of the tested serotypes. As for the experimental part:
as §1, §2, §3

In brackets after ≈: the same amount, converted by molar mass.

In experiment [1] (panel B, minimum concentration required to inhibit 50% of the tested serotypes), “5-{3-[2,6-Dimethyl-4-(5-difluoromethyl-1,2,4-oxadiazol-3-yl)phenoxy]-propyl}-3-methylisoxazole [Example 49g]” showed an MIC50 of 99 mg/L. This compound also had an MIC80 in experiment [1] (panel B) of 49.859 mg/L. In experiment [2], `COCCc1cc(CCCOc2c(C)cc(-c3noc(C(F)(F)F)n3)cc2C)on1` [Example 29d, 5-{3-[2,6-Dimethyl-4-(5-trifluoromethyl-1,2,4-oxadiazol-3-yl)phenoxy]propyl}-3-(methoxyethyl)isoxazole] had an MIC50 of 0.172 mg/L (≈ 0.404 µM) and an MIC80 of 0.715 mg/L (≈ 1.68 µM). Take `Cc1cc(CCCCCOc2c(C)cc(-c3noc(C(F)(F)F)n3)cc2C)on1` [Example 30c, 5-{5-[2,6-Dimethyl-4-(5-trifluoromethyl-1,2,4-oxadiazol-3-yl)-phenoxy]pentyl}-3-methylisoxazole]: in experiment [2], the MIC50 was found to be 0.694 mg/L (≈ 1.7 µM) and the MIC80 was 0.225 mg/L (≈ 0.55 µM). For `Cc1cc(CCCCCOc2c(Cl)cc(-c3noc(C(F)(F)F)n3)cc2Cl)on1` [Example 31c, 5-{5-[2,6-Dichloro-4-(5-trifluoromethyl-1,2,4-oxadiazol-3-yl)-phenoxy]pentyl}-3-methylisoxazole], in that order: 99 mg/L (≈ 220 µM) and 0.533 mg/L (≈ 1.18 µM). For the compound `Cc1cc(CCCOc2ccc(-c3noc(C(F)(F)F)n3)cc2)on1` [Example 32c, 3-Methyl-5-{3-[4-(5-trifluoromethyl-1,2,4-oxadiazol-3-yl) -phenoxy]propyl}isoxazole], in experiment [2], the MIC50 came out at 99 mg/L (≈ 280 µM) and the MIC80 was determined as 2.86 mg/L (≈ 8.1 µM).

Consider `Cc1cc(-c2noc(C(F)(F)F)n2)cc(C)c1OCCCc1cc(CCO)no1` [Example 33, 5-{3-[2,6-Dimethyl-4-(5-trifluoromethyl-1,2,4-oxadiazol-3-yl)-phenoxy]propyl}-3-(2-hydroxyethyl)isoxazole], for which, in experiment [2], the MIC50 was found to be 0.102 mg/L (≈ 0.248 µM) and the MIC80 is 0.045 mg/L (≈ 0.109 µM). In experiment [2], `Cc1cc(-c2noc(C(F)(F)F)n2)cc(C)c1OCCCc1cc(CO)no1` [Example 34d, 5-{3-[2,6-Dimethyl-4-(5-trifluoromethyl-1,2,4-oxadiazol-3-yl)phenoxy]propyl}-3-(hydroxymethyl) isoxazole] gave an MIC50 of 0.07 mg/L (≈ 0.176 µM) and an MIC80 of 0.042 mg/L (≈ 0.106 µM).

For the compound `Cc1cc(-c2noc(C3CC3)n2)cc(C)c1OCCCc1cc(O)no1` [Example 36d, 5-{3-[4-(5-cyclopropyl-1,2,4-oxadiazol-3-yl)-2,6-dimethylphenoxy]propyl}-3-hydroxyisoxazole], in experiment [2], the MIC50 came out at 1.32 mg/L (≈ 3.72 µM) and the MIC80 was determined as 0.371 mg/L (≈ 1.04 µM).

For the compound `CCOc1cc(CCCOc2c(C)cc(-c3noc(C4CC4)n3)cc2C)on1` [Example 37, 5-{3-[4-(5-Cyclopropyl-1,2,4-oxadiazol-3-yl)-2,6-dimethyl-phenoxy]propyl}-3-ethoxyisoxazole], in experiment [2], the MIC50 turned out to be 0.352 mg/L (≈ 0.918 µM) and the MIC80 came out at 0.91 mg/L (≈ 2.37 µM). In experiment [2], `Cc1cc(CCCOc2c(C)cc(-c3noc(C(N)=O)n3)cc2C)on1` [Example 38, 5-{3-[4-(5-Aminocarbonyl-1,2,4-oxadiazol-3-yl)-2,6-dimethyl-phenoxy]propyl}-3-methylisoxazole] gave an MIC50 of 99 mg/L (≈ 278 µM) and an MIC80 of 0.839 mg/L (≈ 2.35 µM).

As to `Cc1cc(CCCOc2c(C)cc(-c3noc(C#N)n3)cc2C)on1` [Example 39, 5-{3-[4-(5-Cyano-1,2,4-oxadiazol-3-yl)-2,6-dimethylphenoxy]-propyl}-3-methylisoxazole], in experiment [2], the MIC50 came out at 99 mg/L (≈ 293 µM) and the MIC80 came to 1.848 mg/L (≈ 5.46 µM). In experiment [2], `Cc1cc(-c2noc(C3CC3)n2)cc(C)c1OCCCc1cc(CO)no1` [Example 39c, 5-{3-[4-(5-Cyclopropyl-1,2,4-oxadiazol-3-yl)-2,6-dimethylphenoxy]propyl}-3-(hydroxymethyl) isoxazole] had an MIC50 of 0.187 mg/L (≈ 0.506 µM) and an MIC80 of 0.035 mg/L (≈ 0.0947 µM).

In experiment [2], `Cc1cc(CCCOc2c(C)cc(-c3noc(CI)n3)cc2C)on1` [Example 41, 5-{3-[2,6-Dimethyl-4-(5-(iodomethyl)-1,2,4-oxadiazol-3-yl) -phenoxy]propyl}-3-methylisoxazole] gave an MIC50 of 99 mg/L (≈ 218 µM) and an MIC80 of 99 mg/L (≈ 218 µM).

In experiment [2], `Cc1ccc(S(=O)(=O)OCc2nc(-c3cc(C)c(OCCCc4cc(C)no4)c(C)c3)no2)cc1` [Example 42, 5-{3-[2,6-Dimethyl-4-(5-(4-methylphenylsulfonyloxymethyl) -1,2,4-oxadiazol-3-yl)phenoxy]propyl}-3-methylisoxazole] returned an MIC50 of 99 mg/L (≈ 199 µM) and an MIC80 of 99 mg/L (≈ 199 µM). In experiment [2], `Cc1cc(CCCOc2c(C)cc(-c3noc(CC(F)(F)F)n3)cc2C)on1` [Example 43, 5-{3-[2,6-Dimethyl-4-(5-(2,2,2-trifluoroethyl)-1,2,4-oxadiazol-3-yl)phenoxy]propyl}-3-methylisoxazole] displayed an MIC50 of 99 mg/L (≈ 250 µM) and an MIC80 of 99 mg/L (≈ 250 µM). `Cc1cc(-c2noc(C3CC3)n2)cc(C)c1OCCCc1cc(OCCO)no1` [Example 44, 5-{3-[4-(5-Cyclopropyl-1,2,4-oxadiazol-3-yl)-2,6-dimethylphenoxy]propyl}-3-(2-hydroxyethoxy)isoxazole] came in with an MIC80 in experiment [2] of 0.385 mg/L (≈ 0.964 µM). In experiment [2], `Cc1cc(CCCOc2c(C)cc(-c3nc(C4CC4)no3)cc2C)on1` [Example 45l, 5-{3-[2,6-Dimethyl-4,(5-cyclopropyl-1,2,4-oxadiazol-3-yl)phenoxy]propyl}-3-methylisoxazole] displayed an MIC50 of 0.558 mg/L (≈ 1.58 µM) and an MIC80 of 0.153 mg/L (≈ 0.433 µM). The matching figures for `Cc1cc(CCCOc2c(C)cc(-c3nc(C(F)(F)F)no3)cc2C)on1` [Example 46c]: 0.197 mg/L (≈ 0.517 µM) and 0.1 mg/L (≈ 0.262 µM). For `Cc1cc(CCCOc2c(C)cc(-c3nc(N)no3)cc2C)on1` [Example 47], in that order: 5.14 mg/L (≈ 15.7 µM) and 0.057 mg/L (≈ 0.174 µM). In experiment [2], `Cc1cc(CCCOc2c(C)cc(-c3noc(C(F)F)n3)cc2Cl)on1` [Example 49d, 5-{3-[2,-Methyl-6-Chloro-4-(5-difluoromethyl-1,2,4-oxadiazol-3-yl)phenoxy]-propyl}-3-methylisoxazole] came in with an MIC50 of 99 mg/L (≈ 258 µM) and an MIC80 of 99 mg/L (≈ 258 µM).

As to `Cc1cc(CCCOc2c(C)cc(-c3noc(C(F)(F)Cl)n3)cc2C)on1` [Example 54a, 5-{3-[2,6-Dimethyl-4-(5-difluorochloromehyl-1,2,4-oxadiazol-3-yl)phenoxy]-propyl}-3-methylisoxazole], the MIC50 in experiment [1] (Human rhinovirus sp., 72 h) was determined as 49.6 mg/L (≈ 125 µM). Besides, in experiment [1] (panel B), the MIC80 amounted to 0.016 mg/L (≈ 0.0402 µM).

With `Cc1cc(CCCOc2ccc(-c3noc(C4CCC4)n3)cc2)on1` [Example 54e, 5-{3-[4-(5-cyclobutyl-1,2,4-oxadiazol-3-yl)phenoxy]propyl}-3-methylisoxazole], in experiment [2], the MIC50 amounted to 99 mg/L (≈ 292 µM) and the MIC80 was 0.1045 mg/L (≈ 0.308 µM). In experiment [2], `CCOC(=O)c1cc(CCCOc2c(C)cc(-c3noc(C(F)(F)F)n3)cc2C)on1` [Example 56d, 5-{3-[2,6-Dimethyl-4-(5-trifluoromethyl-1,2,4-oxadiazol-3-yl)phenoxy]propyl}-3-(ethoxycarbonyl)isoxazole] came in with an MIC50 of 1.47 mg/L (≈ 3.33 µM) and an MIC80 of 0.634 mg/L (≈ 1.44 µM). With `Cc1cc(-c2noc(C(F)(F)F)n2)cc(C)c1OCCCc1cc(C(=O)O)no1` [Example 56e], in experiment [2], the MIC50 came to 99 mg/L (≈ 241 µM) and the MIC80 is 5.304 mg/L (≈ 12.9 µM).

`Cc1cc(-c2noc(C(F)(F)F)n2)cc(C)c1OCCCc1onc(C)c1Br` [Example 57]: the MIC50 in experiment [1] (Human rhinovirus sp., 72 h) is 99 mg/L (≈ 215 µM). Moreover, the MIC80 in experiment [1] (panel B) came to 99 mg/L (≈ 215 µM). In experiment [2], `CSc1nc(-c2cc(C)c(OCCCc3cc(C)no3)c(C)c2)no1` [Example 58d, 5-{3-[2,6-dimethyl-4-(5-methylthio-1,2,4-oxadiazol-3-yl)phenoxy]-propyl}-3-methylisoxazole] registered an MIC50 of 99 mg/L (≈ 275 µM) and an MIC80 of 99 mg/L (≈ 275 µM). The compound `Cc1cc(CCCOc2c(F)cc(-c3noc(C(F)(F)F)n3)cc2I)on1` [Example 60e, 5-{3-[2-Fluoro-6-iodo-4-(5-trifluoromethyl-1,2,4-oxadiazol-3-yl)phenoxy]propyl}-3-methylisoxazole] yielded an MIC50 in experiment [1] (Human rhinovirus sp., 72 h) of 99 mg/L (≈ 199 µM). The compound further showed an MIC80 in experiment [1] (panel B) of 0.4145 mg/L (≈ 0.834 µM).

For `Cc1cc(CCCOc2c(Cl)cc(-c3noc(C(F)(F)F)n3)cc2C#N)on1` [Example 61e, 5-{3-[4-(5-Trifluoromethyl-1,2,4-oxadiazol-3-yl)2-cyano-6-chlorophenoxy]-propyl}-3-methylisoxazole], in experiment [2], the MIC50 turned out to be 0.706 mg/L (≈ 1.71 µM) and the MIC80 came out at 0.3355 mg/L (≈ 0.813 µM).
